According to ChEMBL document CHEMBL5625260, “Novel xanthone derivatives as potent sirtuin 2 inhibitors” (Bioorg Med Chem Lett, 2024):
Calls of active or inactive are those of the source. The calls are words filed in the database; no cut-off is given here.

Tests used:
[1] = biological target: T1, NAD-dependent protein deacetylase sirtuin-1 (Homo sapiens) (UniProt Q96EB6); experiment: Activation of SIRT1 (unknown origin) at 50 uM relative to control
T1 sequence (whole entry): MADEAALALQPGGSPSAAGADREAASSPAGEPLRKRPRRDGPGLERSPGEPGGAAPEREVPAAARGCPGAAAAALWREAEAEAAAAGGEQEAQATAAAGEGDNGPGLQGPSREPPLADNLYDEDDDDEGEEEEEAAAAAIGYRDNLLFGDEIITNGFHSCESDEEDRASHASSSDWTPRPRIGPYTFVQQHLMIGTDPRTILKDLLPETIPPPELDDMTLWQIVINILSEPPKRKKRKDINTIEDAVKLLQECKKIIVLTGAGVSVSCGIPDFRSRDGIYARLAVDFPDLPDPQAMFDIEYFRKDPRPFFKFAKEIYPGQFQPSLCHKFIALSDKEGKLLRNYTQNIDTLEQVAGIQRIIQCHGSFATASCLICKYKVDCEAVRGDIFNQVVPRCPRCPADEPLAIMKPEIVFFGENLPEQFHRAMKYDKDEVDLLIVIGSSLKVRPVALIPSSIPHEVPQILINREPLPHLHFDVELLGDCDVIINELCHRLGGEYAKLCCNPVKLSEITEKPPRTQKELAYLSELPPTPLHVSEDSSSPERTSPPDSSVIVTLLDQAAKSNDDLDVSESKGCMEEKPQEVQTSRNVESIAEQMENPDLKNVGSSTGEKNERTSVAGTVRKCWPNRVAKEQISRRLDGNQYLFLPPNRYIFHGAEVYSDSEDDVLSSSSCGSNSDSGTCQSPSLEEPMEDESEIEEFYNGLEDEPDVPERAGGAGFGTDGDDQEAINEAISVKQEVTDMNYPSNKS

[2] = Antioxidant activity of compound at 150 to 1000 uM by DPPH assay; type: functional; conditions: dose 150-1000 µM
[3] = biological target: T2, NAD-dependent protein deacetylase sirtuin-2 (Homo sapiens) (UniProt Q8IXJ6); experiment: Inhibition of SIRT2 (unknown origin) at 50 uM relative to control
T2 sequence (whole entry): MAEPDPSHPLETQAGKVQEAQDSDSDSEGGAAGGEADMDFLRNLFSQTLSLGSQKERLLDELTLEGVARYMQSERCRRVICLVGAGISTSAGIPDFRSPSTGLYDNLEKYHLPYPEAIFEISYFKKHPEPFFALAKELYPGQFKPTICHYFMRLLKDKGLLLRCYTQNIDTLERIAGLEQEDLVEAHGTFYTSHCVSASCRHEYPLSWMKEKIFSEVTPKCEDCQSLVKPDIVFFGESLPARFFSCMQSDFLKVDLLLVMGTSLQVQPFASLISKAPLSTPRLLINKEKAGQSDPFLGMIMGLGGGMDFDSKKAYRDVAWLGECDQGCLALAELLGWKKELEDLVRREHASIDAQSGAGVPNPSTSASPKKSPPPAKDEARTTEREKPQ

[4] = biological target: T3, NAD-dependent protein deacetylase sirtuin-2 (Homo sapiens, UniProt Q8IXJ6); experiment: Inhibition of SIRT2 (unknown origin)
T3 sequence (Q8IXJ6 whole entry): T2 sequence (whole entry)

[5] = biological target: T4, NAD-dependent protein deacetylase sirtuin-1 (Homo sapiens, UniProt Q96EB6); experiment: Inhibition of AMC-conjugated recombinant human SIRT1 (379 to 382 residues) using […] substrate incubated for 45 mins by fluorescence based assay
T4 sequence (Q96EB6 whole entry): T1 sequence (whole entry)

[6] = biological target: T5, NAD-dependent protein deacetylase sirtuin-3, mitochondrial (Homo sapiens, UniProt Q9NTG7); experiment: Inhibition of AMC-conjugated recombinant human SIRT3 ( 317 to 320 residues) using […] substrate incubated for 45 mins by fluorescence based assay
T5 sequence (Q9NTG7 whole entry): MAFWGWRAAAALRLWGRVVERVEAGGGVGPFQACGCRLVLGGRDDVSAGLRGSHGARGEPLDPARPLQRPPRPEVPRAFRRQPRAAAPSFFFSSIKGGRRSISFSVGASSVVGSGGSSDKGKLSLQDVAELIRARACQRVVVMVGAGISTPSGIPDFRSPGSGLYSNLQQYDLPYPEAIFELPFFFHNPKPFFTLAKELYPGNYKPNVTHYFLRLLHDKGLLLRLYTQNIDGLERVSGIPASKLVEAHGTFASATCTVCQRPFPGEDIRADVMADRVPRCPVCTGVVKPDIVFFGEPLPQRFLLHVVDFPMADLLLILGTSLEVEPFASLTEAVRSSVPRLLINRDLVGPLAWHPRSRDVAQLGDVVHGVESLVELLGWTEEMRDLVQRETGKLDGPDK

[7] = Antioxidant activity of compound at 500 uM by DPPH assay relative to control; type: functional
[8] = biological target: T4, NAD-dependent protein deacetylase sirtuin-1; experiment: Activation of N-terminal His-tagged recombinant human SIRT1 (193 to end residues) expressed in baculovirus infected Sf9 insect cells incubated for 15 to 45 mins by luminescence based assay

| Structure (SMILES) | Activity [1] | Activity [2] | inhibition [3] | further results |
| --- | --- | --- | --- | --- |
| COc1ccccc1CNCc1ccc2oc3c(Cl)cccc3c(=O)c2c1 | -10.3% | inactive | 82.1% | – |
| Cc1ccc(C(=O)Nc2ccc(S(=O)(=O)O)c3cc(S(=O)(=O)O)cc(S(=O)(=O)O)c23)cc1NC(=O)c1cccc(NC(=O)Nc2cccc(C(=O)Nc3cc(C(=O)Nc4ccc(S(=O)(=O)O)c5cc(S(=O)(=O)O)cc(S(=O)(=O)O)c45)ccc3C)c2)c1 [SURAMIN] | – | – | – | IC50 [4]: 24 µM |
| COc1ccccc1CCNCc1ccc2oc3c(Cl)cccc3c(=O)c2c1 | -22.1% | inactive | 93.2% | – |
| Oc1ccc(/C=C/c2cc(O)cc(O)c2)cc1 | – | – | 83% | Activity ([1]; filed as activator): 96.6% |
| CC(C)=CCc1c(O)cc2oc3cc(O)c(O)c(CC=C(C)C)c3c(=O)c2c1O | – | – | – | IC50 [5]: 22.4 µM; IC50 [6]: 26.8 µM |
| COc1ccccc1N1CCN(Cc2ccc3oc4c(Cl)cccc4c(=O)c3c2)CC1 | -17.1% | inactive | 49.5% | – |
| COc1ccc(OC)c(CN2CCN(Cc3ccc4oc5c(Cl)cccc5c(=O)c4c3)CC2)c1 | -12.4% | – | 55.9% | – |
| COc1cccc(N2CCN(Cc3ccc4oc5c(Cl)cccc5c(=O)c4c3)CC2)c1 | -117% | inactive | 48.5% | Activity [7]: 17.9% |
| CC(C)=CCc1c(O)c(CC=C(C)C)c2oc3c(O)ccc(O)c3c(=O)c2c1O [GARTANIN] | – | – | – | EC50 [8]: 1.79 µM |
| COc1ccc(CNCc2ccc3oc4c(Cl)cccc4c(=O)c3c2)cc1OC | -19.5% | inactive | 82.7% | – |
